Experimental data reported in publication PMC10728895, “Stapled Phd Peptides Inhibit Doc Toxin Induced Growth Arrest in Salmonella” (ACS Chemical Biology, 2023).
Positions of bridges follow the written chain, without caps; N, C: chain ends. Non-standard residues stand in square brackets, D forms with d. Residues, ends and D or L forms follow the SMILES beside them. S5 = C=CCCC[C@](C)(N)C(=O)O; Nle = CCCC[C@H](N)C(=O)O

Assays:
DocSTm toxin = conditions: DocSTm 5 μM, peptide 50 μM; for Average Tm of DocSTm in the presence of peptide: pH 8.0, average ± SD, replicates 3-48 (Table S3)
Description: The thermal shift assay was performed using a Mx3005P qPCR System (Agilent) collecting fluorescence data with a temperature ramp of 25 to 95 °C. Samples were prepared in a buffer containing 20 mM K2HPO4 and 50 mM (NH4)2SO4 at pH 8.0, with a final concentration of recombinant Doc protein at 5 μM and Phd peptides at 50 μM. SYPRO Orange dye (Sigma-Aldrich, 5000X stock in DMSO) was used to monitor protein denaturation in a final concentration of 3×. The final sample volume was 20 μL. Each condition was prepared in triplicate in each independent experiment. The melting curves were plotted using GraphPad Prism 9 (GraphPad Software, USA), and the melting temperatures were obtained by fitting the sigmoidal section of the curves to a Boltzmann sigmoid function. For the calculation of thermal shifts ΔTm, the average melting temperature of free DocSTm toxin as determined in the respective peptide measurement cycles was subtracted from the average melting temperature of DocSTm in the presence of the peptide (Table S3).

[1] = test system: DocSTm (phosphorylation of EF-TuSTm); test: Dot blot EF-Tu phosphorylation assay; format: biochemical, Salmonella Typhimurium; conditions: DocSTm 1 μM, EF-TuSTm 3 μM, peptide 10 μM to 5 nM (3-fold dilutions), 16 h RT, dot blot anti-phosphothreonine; compared at three times the DocSTm concentration; two independent experiments
Description: Samples were prepared in assay buffer [50 mM HEPES (pH 7.5), 25 mM (NH4)2SO4, 2 mM TCEP, 2 mM MgCl2, and 1 mM ATP] with a final concentration of recombinant Doc at 1 μM, recombinant EF-Tu at 3 μM, and varying concentrations of synthetic Phd peptides (final concentrations: 10 μM to 5 nM). EF-Tu (3 μM) in assay buffer was used as a negative control (no Doc and Phd peptide), while EF-Tu (3 μM) with Doc (1 μM) in assay buffer was used as a positive control (no Doc inhibitor). The final sample volume was 10 μL. Samples were incubated for 16 h at RT and subsequently spotted on a nitrocellulose membrane. Phosphorylated EF-Tu was detected by immunodecoration using a rabbit monoclonal antiphosphothreonine antibody (Abcam, ab218195) at 1:2000 dilution (1 h at 4 °C), followed by incubation with a goat antirabbit IgG (H + L) HRP conjugate antibody (Advansta) at 1:10,000 dilution (1 h at RT). Chemiluminescence was developed using the HRP Luminata Kit (Merck, WBLUR0100) and captured with an ImageQuant LAS4000 Western blot imaging system (GE HealthCare). Each peptide was tested in two independent experiments.

## CCCC[C@H](NC(=O)[C@H](Cc1c[nH]c2ccccc12)NC(C)=O)C(=O)N[C@@H](CCCNC(=N)N)C(=O)N[C@@H](CC(=O)O)C(=O)N[C@@H](CCC(=O)O)C(=O)N[C@@H](Cc1ccccc1)C(=O)N[C@@H](C)C(=O)N[C@@H](C)C(=O)N[C@H](C(=O)N[C@@H](CCCC)C(=O)N[C@@H](CCCNC(=N)N)C(=O)N[C@H](C(=O)N[C@@H](Cc1c[nH]cn1)C(=O)NCC(=O)N[C@@H](CC(N)=O)C(=O)N[C@@H](CCC(=O)O)C(=O)N[C@@H](CC(C)C)C(=O)N[C@@H](CCCNC(=N)N)C(=O)N[C@@H](CCC(=O)O)C(=O)N[C@@H](CC(C)C)C(=O)N[C@@H](C)C(=O)N[C@@H](CC(=O)O)C(=O)N[C@@H](CCCCN)C(=O)O)C(C)C)[C@@H](C)CC [Peptide 16] (Ac-W[Nle]RDEFAAI[Nle]RVHGNELRELADK-OH)
DocSTm toxin
  Average Tm of DocSTm in the presence of peptide: 65.0 ± 0.4 °C
[1]
  Inhibition of EF-TuSTm phosphorylation by DocSTm (concentration needed for full inhibition): fully inhibited

## CCCC[C@H](NC(=O)[C@H](Cc1c[nH]c2ccccc12)NC(C)=O)C(=O)N[C@@H](CCCNC(=N)N)C(=O)N[C@@]1(C)CCCC=CCCC[C@@](C)(C(=O)N[C@H](C(=O)N[C@@H](CCCC)C(=O)N[C@@H](CCCNC(=N)N)C(=O)N[C@H](C(=O)N[C@@H](Cc2c[nH]cn2)C(=O)NCC(=O)N[C@@H](CC(N)=O)C(=O)N[C@@H](CCC(=O)O)C(=O)N[C@@H](CC(C)C)C(=O)N[C@@H](CCCNC(=N)N)C(=O)N[C@@H](CCC(=O)O)C(=O)N[C@@H](CC(C)C)C(=O)N[C@@H](C)C(=O)N[C@@H](CC(=O)O)C(=O)N[C@@H](CCCCN)C(=O)O)C(C)C)[C@@H](C)CC)NC(=O)[C@H](C)NC(=O)[C@H](Cc2ccccc2)NC(=O)[C@H](CCC(=O)O)NC1=O [Peptide 17] (Ac-W[Nle]R[S5]EFA[S5]I[Nle]RVHGNELRELADK-OH; staple 4-8)
DocSTm toxin
  Average Tm of DocSTm in the presence of peptide: 61.3 ± 0.3 °C
[1]
  Inhibition of EF-TuSTm phosphorylation by DocSTm (concentration needed for full inhibition): required a higher concentration to achieve full inhibition

## CCCC[C@H](NC(=O)[C@H](Cc1c[nH]c2ccccc12)NC(C)=O)C(=O)N[C@@H](CCCNC(=N)N)C(=O)N[C@@H](CC(=O)O)C(=O)N[C@@H](CCC(=O)O)C(=O)N[C@@H](Cc1ccccc1)C(=O)N[C@@H](C)C(=O)N[C@@H](C)C(=O)N[C@H](C(=O)N[C@@H](CCCC)C(=O)N[C@@H](CCCNC(=N)N)C(=O)N[C@H](C(=O)N[C@@H](Cc1c[nH]cn1)C(=O)NCC(=O)N[C@@]1(C)CCCC=CCCC[C@@](C)(C(=O)N[C@@H](CC(C)C)C(=O)N[C@@H](C)C(=O)N[C@@H](CC(=O)O)C(=O)N[C@@H](CCCCN)C(=O)O)NC(=O)[C@H](CCCNC(=N)N)NC(=O)[C@H](CC(C)C)NC(=O)[C@H](CCC(=O)O)NC1=O)C(C)C)[C@@H](C)CC [Peptide 18] (Ac-W[Nle]RDEFAAI[Nle]RVHG[S5]ELR[S5]LADK-OH; staple 15-19)
DocSTm toxin
  Average Tm of DocSTm in the presence of peptide: 66.3 ± 0.2 °C
[1]
  Inhibition of EF-TuSTm phosphorylation by DocSTm (concentration needed for full inhibition): required a higher concentration to achieve full inhibition

## CCCC[C@H](NC(=O)[C@H](Cc1c[nH]c2ccccc12)NC(C)=O)C(=O)N[C@@H](CCCNC(=N)N)C(=O)N[C@@H](CC(=O)O)C(=O)N[C@@H](CCC(=O)O)C(=O)N[C@@H](Cc1ccccc1)C(=O)N[C@@H](CCCNC(=N)N)C(=O)N[C@@H](C)C(=O)N[C@H](C(=O)N[C@@H](CCCC)C(=O)N[C@@H](CCCNC(=N)N)C(=O)N[C@H](C(=O)N[C@@H](Cc1c[nH]cn1)C(=O)NCC(=O)N[C@@H](CC(N)=O)C(=O)N[C@@H](CCC(=O)O)C(=O)N[C@@H](CC(C)C)C(=O)N[C@@H](CCCNC(=N)N)C(=O)N[C@@H](CCC(=O)O)C(=O)N[C@@H](CC(C)C)C(=O)N[C@@H](C)C(=O)N[C@@H](CC(=O)O)C(=O)N[C@@H](CCCCN)C(=O)O)C(C)C)[C@@H](C)CC [Peptide 19] (Ac-W[Nle]RDEFRAI[Nle]RVHGNELRELADK-OH)
DocSTm toxin
  Average Tm of DocSTm in the presence of peptide: 62.5 ± 0.9 °C
[1]
  Inhibition of EF-TuSTm phosphorylation by DocSTm (concentration needed for full inhibition): fully inhibited

## CCCC[C@H](NC(=O)[C@H](Cc1c[nH]c2ccccc12)NC(C)=O)C(=O)N[C@@H](CCCNC(=N)N)C(=O)N[C@@]1(C)CCCC=CCCC[C@@](C)(C(=O)N[C@H](C(=O)N[C@@H](CCCC)C(=O)N[C@@H](CCCNC(=N)N)C(=O)N[C@H](C(=O)N[C@@H](Cc2c[nH]cn2)C(=O)NCC(=O)N[C@@H](CC(N)=O)C(=O)N[C@@H](CCC(=O)O)C(=O)N[C@@H](CC(C)C)C(=O)N[C@@H](CCCNC(=N)N)C(=O)N[C@@H](CCC(=O)O)C(=O)N[C@@H](CC(C)C)C(=O)N[C@@H](C)C(=O)N[C@@H](CC(=O)O)C(=O)N[C@@H](CCCCN)C(=O)O)C(C)C)[C@@H](C)CC)NC(=O)[C@H](CCCNC(=N)N)NC(=O)[C@H](Cc2ccccc2)NC(=O)[C@H](CCC(=O)O)NC1=O [Peptide 20] (Ac-W[Nle]R[S5]EFR[S5]I[Nle]RVHGNELRELADK-OH; staple 4-8)
DocSTm toxin
  Average Tm of DocSTm in the presence of peptide: 60.4 ± 0.4 °C
[1]
  Inhibition of EF-TuSTm phosphorylation by DocSTm (concentration needed for full inhibition): required a higher concentration to achieve full inhibition

## CCCC[C@H](NC(=O)[C@H](Cc1c[nH]c2ccccc12)NC(C)=O)C(=O)N[C@@H](CC(N)=O)C(=O)N[C@@]1(C)CCCC=CCCC[C@@](C)(C(=O)N[C@H](C(=O)N[C@@H](CCCC)C(=O)N[C@@H](C)C(=O)N[C@H](C(=O)N[C@@H](Cc2c[nH]cn2)C(=O)NCC(=O)N[C@@H](CCCNC(=N)N)C(=O)N[C@@H](CCC(N)=O)C(=O)N[C@@H](CC(C)C)C(=O)N[C@@H](CCCNC(=N)N)C(=O)N[C@@H](CCCNC(=N)N)C(=O)N[C@@H](CC(C)C)C(=O)N[C@@H](C)C(=O)N[C@@H](CCCNC(=N)N)C(=O)N[C@@H](CCCCN)C(=O)O)C(C)C)[C@@H](C)CC)NC(=O)[C@H](C)NC(=O)[C@H](Cc2ccccc2)NC(=O)[C@H](CCC(=O)O)NC1=O [Peptide 35] (Ac-W[Nle]N[S5]EFA[S5]I[Nle]AVHGRQLRRLARK-OH; staple 4-8)
DocSTm toxin
  Average Tm of DocSTm in the presence of peptide: 59.9 ± 0.4 °C

## CCCC[C@H](NC(=O)[C@H](Cc1c[nH]c2ccccc12)NC(C)=O)C(=O)N[C@@H](CC(N)=O)C(=O)N[C@@H](CC(N)=O)C(=O)N[C@@H](CCC(=O)O)C(=O)N[C@@H](Cc1ccccc1)C(=O)N[C@@H](C)C(=O)N[C@@]1(C)CCCC=CCCC[C@@](C)(C(=O)N[C@@H](Cc2c[nH]cn2)C(=O)NCC(=O)N[C@@H](CCCNC(=N)N)C(=O)N[C@@H](CCC(N)=O)C(=O)N[C@@H](CC(C)C)C(=O)N[C@@H](CCCNC(=N)N)C(=O)N[C@@H](CCCNC(=N)N)C(=O)N[C@@H](CC(C)C)C(=O)N[C@@H](C)C(=O)N[C@@H](CCCNC(=N)N)C(=O)N[C@@H](CCCCN)C(=O)O)NC(=O)[C@H](C)NC(=O)[C@H](CCCC)NC(=O)[C@H]([C@@H](C)CC)NC1=O [Peptide 37] (Ac-W[Nle]NNEFA[S5]I[Nle]A[S5]HGRQLRRLARK-OH; staple 8-12)
DocSTm toxin; SYPRO Orange 3×, 20 mM K2HPO4, 50 mM (NH4)2SO4, pH 8.0, average Tm with peptide minus average Tm of free DocSTm, mean ± SD
  ΔTm (thermal shift) of DocSTm in the presence of peptide: reduced stabilization
DocSTm toxin
  Average Tm of DocSTm in the presence of peptide: 55.3 ± 1.5 °C
